Experimental data taken from patent publication US10640457B2, “Histone acetyltransferase activators and uses thereof” (The Trustees of Columbia University in the City of New York, priority 2009, dated 2020).
Where “and” joins values, the source holds several entries; their conditions need not be identical. Identical values can stand only once. Entries after “also recorded” stand apart in the source; their conditions may differ.

How the values were obtained:
[1] = target: T1, HDAC7 (Homo sapiens, UniProt Q8WUI4); test: HDAC7 fluorogenic activity assay; conditions: Repeat1/Repeat2, listed as OA2
T1 sequence (Q8WUI4 518-952 limits assumed): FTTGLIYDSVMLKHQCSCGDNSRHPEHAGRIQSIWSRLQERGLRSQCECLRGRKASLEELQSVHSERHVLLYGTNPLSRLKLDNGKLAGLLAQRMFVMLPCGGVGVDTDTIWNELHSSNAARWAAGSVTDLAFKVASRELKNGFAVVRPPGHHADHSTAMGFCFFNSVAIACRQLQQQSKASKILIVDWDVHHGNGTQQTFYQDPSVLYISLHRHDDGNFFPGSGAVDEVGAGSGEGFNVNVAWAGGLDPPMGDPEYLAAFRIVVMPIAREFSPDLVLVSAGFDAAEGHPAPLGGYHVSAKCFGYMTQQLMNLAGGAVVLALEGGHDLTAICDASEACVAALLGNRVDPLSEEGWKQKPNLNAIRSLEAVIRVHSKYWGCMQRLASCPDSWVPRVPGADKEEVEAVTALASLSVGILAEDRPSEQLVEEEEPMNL

[2] = tested on: APP/PS1 mice; test: Contextual and cued fear conditioning in APP/PS1 mice (TSA); assay type: in vivo
Procedure: Following experiments on acute effect of TSA in synaptic dysfunction, we determined if TSA is beneficial against impairment of contextual FC in APP/PS1 mice[A17]. 4 month-old mice were divided into 4 groups: APP/PS1 with TSA, APP/PS1 with vehicle, WT with TSA and WT with vehicle. TSA and vehicle control solution were administered i.p. at a concentration of 2 μg/g body weight. We found a similar shock threshold among the various groups of mice. Then, mice were trained to associate neutral stimuli with an aversive one. They were placed in a novel context (FC box), exposed to a white noise cue paired with a mild foot shock, and injected with TSA 2 hrs before training Fear learning was assessed 24 hrs later by measuring freezing behavior—the absence of all movement except for that necessitated by breathing—in response to representation of the context. We found no difference in the freezing behavior among the 4 groups of mice during the training phase of the FC. 24 hrs later, freezing behavior was decreased in vehicle-treated APP/PS1 mice compared to vehicle-treated WT littermates in analyzing contextual learning (FIG. 18).
HDAC inhibition rescues the defect in associative memory in APP/PS1 mice. Similar to humans affected by AD [B51] […] (herein incorporated by reference in its entirety). In rodents, associative learning can be assessed by contextual fear conditioning. This behavioral task, which is based on the association of a neutral stimulus with an aversive one, is dependent on hippocampal function [B52] (herein incorporated by reference in its entirety). Thus, following experiments on acute effect of TSA in synaptic dysfunction, we determined if TSA is beneficial against impairment of contextual fear conditioning in 3-4 month old APP/PS1 mice [B14] (herein incorporated by reference in its entirety). Animals were divided into 4 groups: APP/PS1 with TSA, APP/PS1 with vehicle, WT with TSA and WT with vehicle. TSA and vehicle control solution were administered i.p. at a concentration of 2 mg/Kg body weight. We found a similar shock threshold among the various groups of mice. Then, mice were trained to associate neutral stimuli with an aversive one. They were placed in a novel context (fear conditioning box), exposed to a white noise cue paired with a mild foot shock, and injected with TSA 2 hrs before training. Fear learning was assessed 24 hrs later by measuring freezing behavior—the absence of all movement except for that necessitated by breathing—in response to representation of the context. We found no difference in the freezing behavior among the 4 groups of mice during the training phase of the fear conditioning (F3,47=0.02997, p=0.9929, n=12-13/group; FIG. 18). Twenty-four hours later, we found a decreased freezing behavior in vehicle-treated APP/PS1 mice compared to vehicle-treated WT littermates in the analysis of the contextual learning (F3,47=[…], p=0.0280, n=12-13/group; FIG. 18).
Freezing in vehicle-treated APP/PS1 mice was about 46% that of vehicle-treated WT mice [vehicle-treated APP/PS1 mice: 14.88±2.97% vs. vehicle-treated WT littermates: 31.68±5.32%; n=13 (11 females plus 2 males) and n=13 (11 females plus 2 males), respectively; t=2.76, p=0.0109; FIG. 18]. […] We next tested cued fear conditioning, a hippocampus-independent task [B46] […] (herein incorporated by reference in its entirety).

[3] = tested on: acetylated H4; test: Western blot of hippocampal acetylated H4 after fear conditioning (TSA); assay type: in vivo, mice
Procedure: We will also test if defects seen in APP/PS1 mice, compared to WT littermates, are due to epigenetic effects. […] (each herein incorporated by reference in its entirety). Acetylation of H4 in hippocampus from WT and APP/PS1 animals was measured. Vehicle control solution was administered i.p. 2 hrs before FC training. 1 hr after contextual FC, the APP/PS1 and WT mice were euthanized and hippocampi were extracted. […] Whether HDAC inhibition might rescue the histone 4 acetylation levels defect observed in APP/PS1 mice was also tested. Injection of TSA (2 μg/g body weight; i.p) 2 hours prior to contextual fear conditioning enhanced H4 acetylation of APP/PS1 mice (FIG. 22). Without being bound by theory, AD is likely to be a disease with an epigenetic motif and HDAC inhibitors can elevate decreased levels of histone 4 in an AD mouse model.
APP/PS1 mice display a reduced endogenous level of histone 4 acetylation in response to a learning task. Given that HDAC inhibitors are known to acetylate other molecules besides histones [B49] […] We measured acetylation of H4 in hippocampus from 3 to 4 month old wild-type (WT) and APP/PS1 animals, after training for fear conditioning. […]

CCOc1cccc(OCCN(C)C)c1C(=O)Nc1ccc(Cl)c(C(F)(F)F)c1 [YF2]
% Activity ([1]; OA2 Log[nM] 0.5): 103.11% and 97.69% | % Activity ([1]; OA2 Log[nM] 1.0): 91.37% and 91.47% | % Activity ([1]; OA2 Log[nM] 1.5): 101.63% and 104.98% | % Activity ([1]; OA2 Log[nM] 2.0): 104.61% and 97.68% | % Activity ([1]; OA2 Log[nM] 2.5): 95.80% and 95.75% | % Activity ([1]; OA2 Log[nM] 3.0): 96.02% and 98.69% | % Activity ([1]; OA2 Log[nM] 3.5): 100.73% and 92.77% | % Activity ([1]; OA2 Log[nM] 4.0): 90.73% and 101.73% | % Activity ([1]; OA2 Log[nM] 4.5): 95.78% and 99.80% | % Activity ([1]; OA2 Log[nM] 5.3): 96.89% and 100.04%

CC(/C=C/C(=O)NO)=C\[C@@H](C)C(=O)c1ccc(N(C)C)cc1 [TSA, trichostatin A]
contextual fear memory deficit in APP/PS1 mice ([2]; TSA i.p. 2 hrs before training): improved memory; also recorded: ameliorates | freezing time relative to vehicle-treated APP/PS1 mice ([2]; TSA-treated APP/PS1 mice, 2 mg/Kg i.p.): about 236.27% | freezing, contextual fear conditioning 24 hrs after training ([2]; TSA-treated APP/PS1 mice, 2 mg/Kg i.p. 2 hrs before training): 35.15±6.99% | freezing, contextual fear conditioning 24 hrs after training ([2]; TSA-treated WT mice, 2 mg/Kg i.p.): 36.95±6.43% | cued fear conditioning, freezing among the 4 groups ([2]; pre-CS and CS): did not find a difference | H4 acetylation in hippocampus of APP/PS1 mice ([3]; TSA 2 mg/kg i.p. 2 hours prior to fear conditioning, 1 hour after training): enhanced; also recorded: rescued; also recorded: enhancement | H4 acetylation levels in WT mice ([3]; TSA 2 mg/kg i.p., vs vehicle-treated WT): increased
